# Laboratory results published in ChEMBL document CHEMBL1201862, “PubChem BioAssay data set” (2004).
# The source made the active and inactive calls.
# Columns and labels:
# [1] = biological target: T1, Carboxy-terminal domain RNA polymerase II polypeptide A small phosphatase 1 (Homo sapiens, UniProt Q9GZU7); experiment: CTDSP1 inhibitors, concentration-response, biochemical, absorbance readout, ultra-high-throughput screen actives (AID 540297); format: functional
# T1 sequence (Q9GZU7 whole entry): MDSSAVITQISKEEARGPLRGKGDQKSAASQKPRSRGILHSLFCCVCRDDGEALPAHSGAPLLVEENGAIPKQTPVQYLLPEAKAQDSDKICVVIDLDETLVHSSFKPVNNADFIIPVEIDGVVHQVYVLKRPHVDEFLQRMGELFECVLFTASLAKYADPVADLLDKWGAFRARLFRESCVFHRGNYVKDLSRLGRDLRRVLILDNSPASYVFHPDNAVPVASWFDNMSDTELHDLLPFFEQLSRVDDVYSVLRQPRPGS
# [2] = antiviral protection against BTV-induced cell death – arbovirus, BSR cells, confirmation (AID 1250); format: functional;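 note: protection from viral cytopathic effect measured as cell viability by ATP luminescence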
# [3] = A cytotoxicity screen of small molecule inhibitors of the PhoP region in Salmonella typhi identified in the primary screen. [Related pubchem assays: 1850, 1864, 1985 ]; format: functional
# Insulin-degrading enzyme = biological target: T2, Insulin-degrading enzyme (Homo sapiens, UniProt P14735); experiment: Dose Response: Fluorescence polarization-based cell-based high throughput dose response assay for inhibitors of insulin-degrading enzyme (IDE). [Related pubchem assays: 434962 (Primary screen (IDE inhibitors in singlicate)), 449730 (Counterscreen (Cytotoxicity in triplicate)), 435028 (Confirmation (IDE inhibitors in triplicate)), 434984 (Summary …; format: functional
# T2 sequence (P14735 whole entry): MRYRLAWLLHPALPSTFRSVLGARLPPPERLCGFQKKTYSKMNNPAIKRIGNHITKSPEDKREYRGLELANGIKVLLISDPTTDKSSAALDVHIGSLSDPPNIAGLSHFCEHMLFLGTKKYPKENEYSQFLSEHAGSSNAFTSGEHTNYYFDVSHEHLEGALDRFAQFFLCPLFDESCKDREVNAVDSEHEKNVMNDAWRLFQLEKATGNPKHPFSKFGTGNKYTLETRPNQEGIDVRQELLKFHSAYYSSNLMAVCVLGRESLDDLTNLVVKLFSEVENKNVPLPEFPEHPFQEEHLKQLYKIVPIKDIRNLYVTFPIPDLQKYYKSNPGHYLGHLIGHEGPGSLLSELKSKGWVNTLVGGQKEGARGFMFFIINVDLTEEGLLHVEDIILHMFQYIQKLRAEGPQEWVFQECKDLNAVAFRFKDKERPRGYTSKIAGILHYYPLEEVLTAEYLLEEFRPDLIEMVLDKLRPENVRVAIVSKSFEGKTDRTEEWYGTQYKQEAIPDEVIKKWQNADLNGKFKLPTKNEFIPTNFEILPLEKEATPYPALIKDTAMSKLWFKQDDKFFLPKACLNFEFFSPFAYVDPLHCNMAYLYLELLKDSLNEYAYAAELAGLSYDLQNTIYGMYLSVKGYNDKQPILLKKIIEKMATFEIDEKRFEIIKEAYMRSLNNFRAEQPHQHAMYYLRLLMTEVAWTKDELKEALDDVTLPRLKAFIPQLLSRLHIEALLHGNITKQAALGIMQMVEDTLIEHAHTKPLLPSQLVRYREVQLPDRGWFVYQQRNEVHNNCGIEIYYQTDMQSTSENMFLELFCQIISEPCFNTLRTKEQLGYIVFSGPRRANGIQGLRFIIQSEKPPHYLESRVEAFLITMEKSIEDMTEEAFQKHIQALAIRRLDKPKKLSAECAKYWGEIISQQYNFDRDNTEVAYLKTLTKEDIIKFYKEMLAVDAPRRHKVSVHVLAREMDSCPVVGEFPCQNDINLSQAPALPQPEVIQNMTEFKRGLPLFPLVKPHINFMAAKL
# [4] = Counterscreen for IDE inhibitors: Luminescence-based cell-based high throughput dose response assay to identify compounds that are cytotoxic to HEK cells. [Related pubchem assays: 434962 (Primary screen (IDE inhibitors in singlicate)), 449730 (Counterscreen (Cytotoxicity in triplicate)), 435028 (Confirmation (IDE inhibitors in triplicate)) …; format: functional; conditions: HEK293
# [5] = biological target: T3, Histone-lysine N-methyltransferase NSD2 (Homo sapiens, UniProt O96028); format: biochemical
# T3 sequence (O96028 whole entry): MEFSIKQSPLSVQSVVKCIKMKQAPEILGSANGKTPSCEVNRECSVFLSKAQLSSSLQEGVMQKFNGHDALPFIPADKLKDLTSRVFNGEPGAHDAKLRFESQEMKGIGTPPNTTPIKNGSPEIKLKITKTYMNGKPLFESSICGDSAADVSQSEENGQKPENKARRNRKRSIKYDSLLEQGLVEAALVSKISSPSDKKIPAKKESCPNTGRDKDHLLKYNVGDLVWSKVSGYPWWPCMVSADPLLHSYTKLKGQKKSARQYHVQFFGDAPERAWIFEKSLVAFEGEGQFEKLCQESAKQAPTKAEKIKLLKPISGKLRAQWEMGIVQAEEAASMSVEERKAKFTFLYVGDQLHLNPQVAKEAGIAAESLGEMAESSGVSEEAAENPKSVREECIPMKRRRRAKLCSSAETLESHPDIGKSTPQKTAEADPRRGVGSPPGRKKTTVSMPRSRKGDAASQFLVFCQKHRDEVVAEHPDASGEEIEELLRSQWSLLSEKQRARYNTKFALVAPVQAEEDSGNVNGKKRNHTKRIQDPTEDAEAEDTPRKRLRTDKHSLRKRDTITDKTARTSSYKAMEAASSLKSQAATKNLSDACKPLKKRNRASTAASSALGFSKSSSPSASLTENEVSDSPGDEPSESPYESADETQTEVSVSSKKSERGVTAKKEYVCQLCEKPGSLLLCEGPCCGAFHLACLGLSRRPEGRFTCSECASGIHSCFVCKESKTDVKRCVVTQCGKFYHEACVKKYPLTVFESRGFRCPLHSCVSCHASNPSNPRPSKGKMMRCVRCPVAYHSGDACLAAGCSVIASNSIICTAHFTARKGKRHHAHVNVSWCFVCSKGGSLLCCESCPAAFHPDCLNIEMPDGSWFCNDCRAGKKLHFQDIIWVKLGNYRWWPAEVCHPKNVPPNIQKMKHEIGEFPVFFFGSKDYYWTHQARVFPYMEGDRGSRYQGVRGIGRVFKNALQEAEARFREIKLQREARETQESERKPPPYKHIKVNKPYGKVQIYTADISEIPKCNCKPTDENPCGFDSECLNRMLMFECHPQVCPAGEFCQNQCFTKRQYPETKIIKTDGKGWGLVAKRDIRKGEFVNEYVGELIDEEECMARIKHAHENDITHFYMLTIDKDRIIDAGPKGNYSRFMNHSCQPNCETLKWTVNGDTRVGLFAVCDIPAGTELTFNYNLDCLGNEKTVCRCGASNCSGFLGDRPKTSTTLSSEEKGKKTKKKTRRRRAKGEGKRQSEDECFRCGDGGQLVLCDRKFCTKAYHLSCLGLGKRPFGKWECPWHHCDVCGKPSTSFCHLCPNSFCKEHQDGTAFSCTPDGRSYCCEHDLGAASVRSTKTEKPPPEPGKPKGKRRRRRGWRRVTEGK
# [6] = Luminescence Cell-Based Dose Retest to Confirm Inhibitors of Cancer Stem Cells. [Related pubchem assays (depositor defined):AID2717, AID2721]; format: functional, Homo sapiens; conditions: Homo sapiens
# [7] = biological target: T4, Rac GTPase-activating protein 1 (Homo sapiens, UniProt Q9H0H5); experiment: blockers of MgcRacGAP-driven Rac1 GTP hydrolysis – biochemical, ADP Hunter fluorescence, primary and confirmatory, confirmation (AID 624330); format: functional
# T4 sequence (Q9H0H5 whole entry): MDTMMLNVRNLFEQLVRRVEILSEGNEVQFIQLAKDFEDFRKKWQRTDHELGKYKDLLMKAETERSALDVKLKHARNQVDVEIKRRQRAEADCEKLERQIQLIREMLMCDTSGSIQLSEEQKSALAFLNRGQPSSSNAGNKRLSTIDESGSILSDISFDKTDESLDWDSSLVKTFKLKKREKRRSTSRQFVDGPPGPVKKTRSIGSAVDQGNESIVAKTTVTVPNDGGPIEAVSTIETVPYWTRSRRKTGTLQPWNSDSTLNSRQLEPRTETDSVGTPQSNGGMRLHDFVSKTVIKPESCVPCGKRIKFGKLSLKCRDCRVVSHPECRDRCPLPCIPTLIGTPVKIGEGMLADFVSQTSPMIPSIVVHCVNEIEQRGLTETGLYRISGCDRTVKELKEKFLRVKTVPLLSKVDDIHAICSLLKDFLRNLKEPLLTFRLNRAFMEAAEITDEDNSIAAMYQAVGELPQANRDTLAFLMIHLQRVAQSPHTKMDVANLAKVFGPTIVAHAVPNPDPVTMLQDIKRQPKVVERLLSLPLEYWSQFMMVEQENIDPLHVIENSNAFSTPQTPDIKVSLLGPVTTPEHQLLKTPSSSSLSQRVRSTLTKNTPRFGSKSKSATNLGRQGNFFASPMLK
# Protein Rev = Protein Rev (Human immunodeficiency virus type 1 group M subtype B (isolate WMJ22)(HIV-1), UniProt P05866); experiment: inhibitors of Rev protein–RRE RNA complex – biochemical, protein-RNA interaction, dose response (AID 842); set-up: species or system Human immunodeficiency virus 1
# Sequence of Protein Rev (P05866 whole entry): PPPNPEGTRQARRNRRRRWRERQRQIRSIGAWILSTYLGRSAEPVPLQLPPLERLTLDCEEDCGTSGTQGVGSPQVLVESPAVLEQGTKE
# [8] = biological target: Glucose-6-phosphate 1-dehydrogenase (Homo sapiens, UniProt P11413); experiment: inhibition of Homo sapiens G6PD, dose series – biochemical, fluorescence, selectivity assay for P. falciparum G6PD inhibitor project, dose response (AID 504792); format: functional
# [9] = biological target: T5, Voltage-gated N-type calcium channel alpha-1B subunit/Amyloid beta A4 precursor protein-binding family A member 1 (Homo sapiens, UniProt Q00975+Q02410); format: protein assay
# T5 sequence (Q00975 whole entry): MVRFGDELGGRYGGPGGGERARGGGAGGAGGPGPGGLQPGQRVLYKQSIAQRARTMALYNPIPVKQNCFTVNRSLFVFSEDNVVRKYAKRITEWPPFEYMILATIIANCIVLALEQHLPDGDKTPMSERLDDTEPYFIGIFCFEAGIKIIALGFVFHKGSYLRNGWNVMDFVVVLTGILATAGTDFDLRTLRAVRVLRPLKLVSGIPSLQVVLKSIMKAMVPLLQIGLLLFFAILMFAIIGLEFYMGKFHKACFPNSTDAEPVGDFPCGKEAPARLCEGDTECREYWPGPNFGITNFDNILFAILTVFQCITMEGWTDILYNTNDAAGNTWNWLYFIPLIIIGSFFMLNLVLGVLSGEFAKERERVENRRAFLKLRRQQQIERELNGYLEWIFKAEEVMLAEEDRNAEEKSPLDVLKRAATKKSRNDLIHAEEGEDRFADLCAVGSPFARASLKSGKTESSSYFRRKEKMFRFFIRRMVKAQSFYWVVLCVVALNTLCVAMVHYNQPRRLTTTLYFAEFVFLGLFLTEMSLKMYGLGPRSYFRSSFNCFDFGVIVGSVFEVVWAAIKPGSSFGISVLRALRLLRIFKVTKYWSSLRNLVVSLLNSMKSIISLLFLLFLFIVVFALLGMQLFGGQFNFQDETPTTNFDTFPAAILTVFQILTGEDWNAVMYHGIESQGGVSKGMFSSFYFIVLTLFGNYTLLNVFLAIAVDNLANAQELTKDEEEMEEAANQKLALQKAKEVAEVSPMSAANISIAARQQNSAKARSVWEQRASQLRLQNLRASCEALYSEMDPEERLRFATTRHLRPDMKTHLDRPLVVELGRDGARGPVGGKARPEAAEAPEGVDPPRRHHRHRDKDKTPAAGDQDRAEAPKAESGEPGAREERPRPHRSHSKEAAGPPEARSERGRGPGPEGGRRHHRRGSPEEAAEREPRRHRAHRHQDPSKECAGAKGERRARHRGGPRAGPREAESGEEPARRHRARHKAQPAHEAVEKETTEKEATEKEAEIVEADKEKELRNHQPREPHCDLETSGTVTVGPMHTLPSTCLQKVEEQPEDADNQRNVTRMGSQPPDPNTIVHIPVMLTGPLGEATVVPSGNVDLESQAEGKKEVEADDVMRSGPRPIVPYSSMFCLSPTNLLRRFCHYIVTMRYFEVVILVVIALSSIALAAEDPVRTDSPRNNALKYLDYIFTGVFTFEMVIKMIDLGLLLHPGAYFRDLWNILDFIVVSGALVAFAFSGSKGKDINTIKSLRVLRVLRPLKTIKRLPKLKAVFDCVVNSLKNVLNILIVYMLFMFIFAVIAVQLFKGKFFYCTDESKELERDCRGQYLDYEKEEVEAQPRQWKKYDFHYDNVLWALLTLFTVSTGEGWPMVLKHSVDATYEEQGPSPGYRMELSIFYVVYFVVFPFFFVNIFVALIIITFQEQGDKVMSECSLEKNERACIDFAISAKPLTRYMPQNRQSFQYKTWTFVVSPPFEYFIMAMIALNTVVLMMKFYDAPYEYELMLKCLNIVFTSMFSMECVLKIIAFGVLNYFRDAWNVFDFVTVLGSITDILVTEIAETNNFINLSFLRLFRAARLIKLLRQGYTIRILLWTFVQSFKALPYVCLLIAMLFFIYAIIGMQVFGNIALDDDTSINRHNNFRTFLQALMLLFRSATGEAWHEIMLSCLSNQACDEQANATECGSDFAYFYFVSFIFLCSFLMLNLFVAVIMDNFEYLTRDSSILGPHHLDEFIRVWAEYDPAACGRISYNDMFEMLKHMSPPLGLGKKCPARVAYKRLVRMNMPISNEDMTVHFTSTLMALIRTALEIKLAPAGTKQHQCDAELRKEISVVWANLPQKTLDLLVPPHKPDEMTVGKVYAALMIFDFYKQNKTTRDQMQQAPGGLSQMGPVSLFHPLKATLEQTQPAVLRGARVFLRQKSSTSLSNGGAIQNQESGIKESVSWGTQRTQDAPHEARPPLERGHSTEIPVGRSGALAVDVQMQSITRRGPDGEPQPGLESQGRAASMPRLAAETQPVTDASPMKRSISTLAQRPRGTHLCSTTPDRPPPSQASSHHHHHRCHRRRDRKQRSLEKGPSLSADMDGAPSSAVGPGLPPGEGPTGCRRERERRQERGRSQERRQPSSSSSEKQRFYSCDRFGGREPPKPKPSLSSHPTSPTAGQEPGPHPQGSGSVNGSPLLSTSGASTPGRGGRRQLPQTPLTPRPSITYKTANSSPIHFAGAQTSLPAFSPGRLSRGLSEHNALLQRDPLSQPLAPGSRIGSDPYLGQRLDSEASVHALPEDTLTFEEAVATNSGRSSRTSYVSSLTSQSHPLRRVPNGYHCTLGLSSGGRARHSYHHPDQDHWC
# T5 sequence (Q02410 whole entry): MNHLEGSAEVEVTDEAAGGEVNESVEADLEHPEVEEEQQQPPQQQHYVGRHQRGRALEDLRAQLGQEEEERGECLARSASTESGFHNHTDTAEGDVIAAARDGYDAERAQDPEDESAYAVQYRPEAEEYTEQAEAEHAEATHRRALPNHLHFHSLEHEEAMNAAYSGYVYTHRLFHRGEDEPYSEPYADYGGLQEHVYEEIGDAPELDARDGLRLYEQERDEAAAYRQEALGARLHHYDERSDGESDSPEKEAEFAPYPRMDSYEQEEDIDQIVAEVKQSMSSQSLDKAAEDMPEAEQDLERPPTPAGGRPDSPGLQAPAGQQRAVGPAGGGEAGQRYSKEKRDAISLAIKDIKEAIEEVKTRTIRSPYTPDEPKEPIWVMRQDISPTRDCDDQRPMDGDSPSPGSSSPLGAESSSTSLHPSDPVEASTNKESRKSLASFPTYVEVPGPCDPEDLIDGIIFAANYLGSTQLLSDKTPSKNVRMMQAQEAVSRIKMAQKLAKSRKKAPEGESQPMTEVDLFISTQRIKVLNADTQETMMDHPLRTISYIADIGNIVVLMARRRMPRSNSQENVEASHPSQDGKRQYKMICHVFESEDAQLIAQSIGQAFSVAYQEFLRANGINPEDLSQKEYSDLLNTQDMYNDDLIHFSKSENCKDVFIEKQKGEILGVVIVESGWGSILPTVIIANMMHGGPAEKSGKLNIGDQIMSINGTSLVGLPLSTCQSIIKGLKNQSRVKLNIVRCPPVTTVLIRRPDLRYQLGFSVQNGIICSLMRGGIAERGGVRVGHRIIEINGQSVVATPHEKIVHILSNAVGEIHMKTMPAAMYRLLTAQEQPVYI
# [10] = biological target: T5, Voltage-gated N-type calcium channel alpha-1B subunit/Amyloid beta A4 precursor protein-binding family A member 1; format: protein assay; remark: listed apart in the source
# [11] = biological target: DNA dC->dU-editing enzyme APOBEC-3A (Homo sapiens, UniProt P31941); experiment: A3A deaminase inhibition for selectivity – biochemical, dose response (AID 504722); format: functional
# Sequence of DNA dC->dU-editing enzyme APOBEC-3A (P31941 whole entry): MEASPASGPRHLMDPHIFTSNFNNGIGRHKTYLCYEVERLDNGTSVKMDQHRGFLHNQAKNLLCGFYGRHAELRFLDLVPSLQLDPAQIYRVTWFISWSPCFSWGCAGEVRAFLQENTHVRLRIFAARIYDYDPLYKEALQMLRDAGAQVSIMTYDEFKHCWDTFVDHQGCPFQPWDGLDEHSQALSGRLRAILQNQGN
# Genome polyprotein = Genome polyprotein (dengue virus type 2, UniProt P29990); experiment: flavivirus cap methylation enzyme inhibition – biochemical, confirmation dose response, primary screen (AID 588689); format: functional
# [12] = viability of uninfected HEp-2 cells – cell-based, HTS, cytotoxicity control for RSV inhibitor project, dose response (AID 2410); format: functional; conditions: human respiratory syncytial virus
# [13] = biological target: T6, Long-chain-fatty-acid--AMP ligase FadD28 (Mycobacterium tuberculosis, UniProt P9WQ59); experiment: Fluorescence polarization aasay to screen for inhibitors that compete for the binding of FadD28 to a bisubstrate Measured in Biochemical System Using Plate Reader - 2147-01_Inhibitor_Dose_CherryPick_Activity.; format: functional, Mycobacterium tuberculosis H37Rv
# T6 sequence (P9WQ59 whole entry): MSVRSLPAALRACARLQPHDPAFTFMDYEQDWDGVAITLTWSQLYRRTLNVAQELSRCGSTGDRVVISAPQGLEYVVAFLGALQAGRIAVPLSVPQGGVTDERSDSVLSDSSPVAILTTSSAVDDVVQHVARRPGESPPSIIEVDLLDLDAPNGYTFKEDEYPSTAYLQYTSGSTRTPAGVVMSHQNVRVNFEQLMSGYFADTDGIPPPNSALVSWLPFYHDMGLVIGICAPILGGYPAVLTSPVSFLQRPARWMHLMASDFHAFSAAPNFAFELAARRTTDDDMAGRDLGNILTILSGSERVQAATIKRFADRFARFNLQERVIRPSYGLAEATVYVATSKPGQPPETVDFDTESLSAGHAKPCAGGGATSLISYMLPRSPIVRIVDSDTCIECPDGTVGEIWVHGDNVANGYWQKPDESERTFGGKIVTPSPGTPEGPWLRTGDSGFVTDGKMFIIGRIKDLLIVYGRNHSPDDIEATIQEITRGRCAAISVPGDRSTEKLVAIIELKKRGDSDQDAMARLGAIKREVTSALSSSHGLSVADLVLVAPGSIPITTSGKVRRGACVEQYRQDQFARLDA
# [14] = Trypanosoma cruzi growth suppression in host cells – NIH3T3 host cells, beta-gal luminescence, confirmation (AID 2044); format: functional, cell-based;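 note: intracellular parasites grown in NIH/3T3 mouse fibroblasts as host cells; luminescent beta-galactosidase reporter signal from transgenic T. cruzi replicating inside host cells; inhibitors lower the luminescence signal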
# [15] = NIH3T3 cell viability loss – ATP luminescence, mouse fibroblasts, counter-screen, dose response (AID 2010); format: functional, cell-based; conditions: NIH3T3;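 note: cells exposed to compound for about 90 hours before reading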
# [16] = Counterscreen for activators of the function of SWI/SNF related, matrix associated, actin dependent regulator of chromatin, subfamily a, member 2 (SMARCA2, BRM): Luminescence-based cell-based high throughput dose response assay to identify non-selective compounds using the VP16 reporter assay.; format: functional
# [17] = biological target: SWI/SNF-related matrix-associated actin-dependent regulator of chromatin subfamily A member 2 (Homo sapiens, UniProt P51531); experiment: Luminescence-based cell-based high throughput dose response assay to identify activators of the function of SWI/SNF related, matrix associated, actin dependent regulator of chromatin, subfamily a, member 2 (SMARCA2, BRM).; format: functional
# Sequence of SWI/SNF-related matrix-associated actin-dependent regulator of chromatin subfamily A member 2 (P51531 whole entry): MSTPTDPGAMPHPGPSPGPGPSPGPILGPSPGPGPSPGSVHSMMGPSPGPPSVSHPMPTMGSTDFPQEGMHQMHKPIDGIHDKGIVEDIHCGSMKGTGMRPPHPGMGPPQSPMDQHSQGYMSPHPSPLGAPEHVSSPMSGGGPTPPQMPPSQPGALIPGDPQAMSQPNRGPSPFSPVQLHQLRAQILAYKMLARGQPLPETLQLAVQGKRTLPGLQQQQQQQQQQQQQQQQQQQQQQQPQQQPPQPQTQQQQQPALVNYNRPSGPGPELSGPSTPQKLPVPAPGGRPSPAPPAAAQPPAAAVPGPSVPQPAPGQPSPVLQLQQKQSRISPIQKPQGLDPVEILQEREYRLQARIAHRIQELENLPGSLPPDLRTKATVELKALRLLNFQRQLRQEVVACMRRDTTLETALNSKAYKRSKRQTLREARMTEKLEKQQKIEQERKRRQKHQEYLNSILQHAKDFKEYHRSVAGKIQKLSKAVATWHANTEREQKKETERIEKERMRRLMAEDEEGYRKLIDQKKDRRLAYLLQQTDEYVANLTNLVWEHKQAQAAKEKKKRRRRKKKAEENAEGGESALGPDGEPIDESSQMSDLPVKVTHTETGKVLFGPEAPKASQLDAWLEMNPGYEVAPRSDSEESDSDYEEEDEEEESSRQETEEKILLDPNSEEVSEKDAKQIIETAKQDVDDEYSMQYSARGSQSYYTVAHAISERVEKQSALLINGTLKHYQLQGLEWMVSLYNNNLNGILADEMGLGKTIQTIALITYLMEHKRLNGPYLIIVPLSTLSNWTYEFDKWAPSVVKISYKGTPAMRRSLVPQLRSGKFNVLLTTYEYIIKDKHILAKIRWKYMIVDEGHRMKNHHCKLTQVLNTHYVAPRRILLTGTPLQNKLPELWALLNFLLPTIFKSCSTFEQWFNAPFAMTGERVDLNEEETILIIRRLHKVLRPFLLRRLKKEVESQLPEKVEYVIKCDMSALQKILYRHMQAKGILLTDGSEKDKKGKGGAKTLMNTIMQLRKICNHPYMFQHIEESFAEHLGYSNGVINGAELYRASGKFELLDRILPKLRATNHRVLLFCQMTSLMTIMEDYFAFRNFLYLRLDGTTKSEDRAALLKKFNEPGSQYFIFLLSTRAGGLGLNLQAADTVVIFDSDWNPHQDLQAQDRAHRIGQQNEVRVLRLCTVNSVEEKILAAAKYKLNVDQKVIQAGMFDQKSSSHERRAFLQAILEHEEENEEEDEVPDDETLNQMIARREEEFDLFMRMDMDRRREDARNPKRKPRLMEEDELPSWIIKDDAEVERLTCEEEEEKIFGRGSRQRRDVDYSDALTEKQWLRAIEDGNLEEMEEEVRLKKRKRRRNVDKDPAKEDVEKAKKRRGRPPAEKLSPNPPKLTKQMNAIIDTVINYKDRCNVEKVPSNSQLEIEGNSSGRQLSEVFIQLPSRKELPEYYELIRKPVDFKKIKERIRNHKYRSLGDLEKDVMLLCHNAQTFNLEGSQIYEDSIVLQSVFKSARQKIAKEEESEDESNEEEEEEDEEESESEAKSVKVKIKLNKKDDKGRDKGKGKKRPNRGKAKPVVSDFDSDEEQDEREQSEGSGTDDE
smiles,measurement,setting,value
O=C(COC(=O)c1ccc(NS(=O)(=O)c2cccs2)cc1)Nc1nc2c(F)c(F)c(F)cc2s1,IC50,[1],4.05 µM (active)
same,IC50,[2],46.2 µM (active)
COc1cccc(CNS(=O)(=O)c2ccc3c(c2)NC(=O)CS3)c1,EC50,[3],> 50 µM (active)
COc1ccc(OC)c(-n2c(SCC(=O)NCc3ccco3)nnc2-c2c[nH]c3ccccc23)c1,IC50,cells,> 50 µM (active)
N#C/C(=C/c1ccc(O)c(O)c1)C(=O)NCc1ccc(Cl)cc1,IC50,Insulin-degrading enzyme,11.6 µM (not active)
same,IC50,[4],35.9 µM (not active)
same,AC50,[5],5.16 µM (active)
same,AC50,[6],6.32 µM (active)
same,IC50,[7],34.5 µM (active)
O=C(Cc1ccc(Br)cc1)c1ccc(O)cc1O,EC50,[3],> 50 µM (active)
COc1ccccc1NC1=NC(c2ccc(Cl)cc2)N=C(N)N1 (stereo not drawn),IC50,Protein Rev,> 79.4 µM (not active)
Cc1cc(C)c2c(=O)n(CC(=O)Nc3ccc(Br)c(C)c3)sc2n1,IC50,Insulin-degrading enzyme,4.54 µM (active)
same,IC50,[8],49.2 µM (inactive)
same,IC50,[4],17.5 µM (not active)
same,IC50,[9],> 50 µM (inactive)
same,IC50,[10],> 56.8 µM (not active)
same,IC50,[11],> 100 µM (inactive)
O=C(O)CC/C(=C\c1ccc(N2CCCC2)c([N+](=O)[O-])c1)c1nc2ccccc2s1,IC50,Genome polyprotein,43.1 µM (active)
same,CC50,[12],33.3 µM (active)
same,AC50,[13],> 100 µM (inactive)
same,IC50,[2],27.8 µM (active)
CC(=N)/C(C#N)=C(/O)COc1ccc(Cl)cc1Cl,CC50,[12],> 50 µM (active)
same,IC50,cells,49.6 µM (active)
Cc1nc(Nc2ccncc2)c2oc3ccccc3c2n1,EC50,[14],2.47 µM (active)
same,EC50,[15],> 60 µM (not active)
same,EC50,[16],> 91.2 µM (inactive)
same,IC50,Protein Rev,> 79.4 µM (not active)
same,EC50,[17],> 91.2 µM (inactive)
